Calls of active or inactive are those of the source.
Key:
Format in all cases: functional, organism-based
[1] = tested on: Mus musculus; experiment: Anti-inflammatory activity in cigarette smoke-predisposed BALB/c mouse model of NTHi-inflammation assessed as reduction in macrophage infiltration in BAL fluid at 10 mg/kg, ip administered at 1 and 24 hrs post NTHi-challenge by Wright-staining based differential cell counting method
[2] = tested on: Mus musculus; experiment: Anti-inflammatory activity in cigarette smoke-predisposed BALB/c mouse model of NTHi-inflammation assessed as reduction in neutrophil infiltration in BAL fluid at 10 mg/kg, ip administered at 1 and 24 hrs post NTHi-challenge by Wright-staining based differential cell counting method
[3] = tested on: Mus musculus; experiment: Antiinflammatory activity in cigarette smoke-predisposed BALB/c mouse model of NTHi-inflammation assessed as reduction in lung inflammation score at 10 mg/kg, ip administered at 1 and 24 hrs post NTHi-challenge by hematoxylin and eosin staining-based method
[4] = tested on: Mus musculus; experiment: Activation of Nrf2 in cigarette smoke-predisposed BALB/c mouse model of NTHi-inflammation assessed as increase in lung OH-1 expression at 5 and 10 mg/kg, ip administered post 1 and 24 hrs of NTHi-challenge by RT-PCR method
[5] = tested on: Mus musculus; experiment: Antiinflammatory activity in cigarette smoke-predisposed BALB/c mouse model of NTHi-inflammation assessed as suppression of lung TNF-alpha level at 5 and 10 mg/kg, ip administered post 1 and 24 hrs of NTHi-challenge by ELISA
[6] = tested on: Mus musculus; experiment: Antiinflammatory activity in cigarette smoke-predisposed BALB/c mouse model of NTHi-inflammation assessed as suppression of lung IL-1 beta level at 5 and 10 mg/kg, ip administered post 1 and 24 hrs of NTHi-challenge by ELISA
[7] = tested on: Mus musculus; experiment: Antiinflammatory activity in cigarette smoke-predisposed BALB/c mouse model of NTHi-inflammation assessed as suppression of lung CXCL1/KC level at 5 and 10 mg/kg, ip administered post 1 and 24 hrs of NTHi-challenge by ELISA
[8] = Downregulation of MMP8 gene expression in lungs of cigarette smoke-predisposed BALB/c mouse model of NTHi-inflammation at 5 and 10 mg/kg, ip administered post 1 and 24 hrs of NTHi-challenge by RT-PCR method
[9] = Downregulation of MMP9 gene expression in lungs of cigarette smoke-predisposed BALB/c mouse model of NTHi-inflammation at 5 and 10 mg/kg, ip administered post 1 and 24 hrs of NTHi-challenge by RT-PCR method
[10] = tested on: Mus musculus; experiment: Antiinflammatory activity in cigarette smoke-predisposed BALB/c mouse model of NTHi-inflammation assessed as suppression of lung 8-OHdG level at 5 and 10 mg/kg, ip administered post 1 and 24 hrs of NTHi-challenge by ELISA
[11] = Reduction of Keap1 gene expression in lungs of cigarette smoke-predisposed BALB/c mouse model of NTHi-inflammation at 5 and 10 mg/kg, ip administered post 1 and 24 hrs of NTHi-challenge by RT-PCR method
[12] = tested on: Mus musculus; experiment: Activation of Nrf2 in cigarette smoke-predisposed BALB/c mouse model of NTHi-inflammation assessed as increase in lung GR expression at 5 and 10 mg/kg, ip administered post 1 and 24 hrs of NTHi-challenge by RT-PCR method
[13] = tested on: Mus musculus; experiment: Activation of Nrf2 in cigarette smoke-predisposed BALB/c mouse model of NTHi-inflammation assessed as increase in lung GCLM expression at 5 and 10 mg/kg, ip administered post 1 and 24 hrs of NTHi-challenge by RT-PCR method
[14] = tested on: Mus musculus; experiment: Activation of Nrf2 in cigarette smoke-predisposed BALB/c mouse model of NTHi-inflammation assessed as increase in lung GPx2 expression at 5 and 10 mg/kg, ip administered post 1 and 24 hrs of NTHi-challenge by RT-PCR method
[15] = tested on: Mus musculus; experiment: Activation of Nrf2 in cigarette smoke-predisposed BALB/c mouse model of NTHi-inflammation assessed as increase in lung NQO1 expression at 5 and 10 mg/kg, ip administered post 1 and 24 hrs of NTHi-challenge by RT-PCR method
[16] = tested on: Mus musculus; experiment: Induction of Nrf2 nuclear translocation in cigarette smoke-predisposed BALB/c mouse model of NTHi-inflammation assessed as Nrf2 binding to antioxidant response element consensus DNA binding site at 5 and 10 mg/kg, ip administered post 1 and 24 hrs of NTHi-challenge by ELISA

C=C1CC[C@@H]2[C@](C)(CO)[C@H](O)CC[C@@]2(C)[C@@H]1C/C=C1/C(=O)OC[C@H]1O
active: Activity [1] | Activity [2] | Activity [3] | Activity [4] | inhibition [5] | inhibition [6] | inhibition [7] | Activity [8] | Activity [9] | inhibition [10] | Activity [11] | Activity [12] | Activity [13] | Activity [14] | Activity [15] | Activity [16]

From ChEMBL document CHEMBL3856181, “Cigarette Smoke-Induced Lung Disease Predisposes to More Severe Infection with Nontypeable Haemophilus influenzae: Protective Effects of Andrographolide” (J Nat Prod, 2016)
